test system: HLA-A*24; assay: MHC binding assay: UV-ligand exchange with beta2m ELISA (peptide exchange yield); parameters: species or system human; conditions: Table 11, binding to HLA-A*24, UV-ligand exchange
Summary of the method: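 Peptide-MHC complexes generated by UV-induced exchange of a photocleavable ligand with the test peptide; exchange yield quantified by streptavidin-capture ELISA detecting β2m (HRP anti-β2m, TMB, A450). Samples diluted 100-fold, with refolded HLA-A*02:01/MLA-001 monomers (15-500 ng/ml) as standards.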

Peptide exchange (MHC class I binding score, peptide exchange yield) | Substance
++++ (>75% = ++++) | 177 (KYLITTFSL; listed as Homo sapiens) [compound 177]
++++ (>75% = ++++) | 178 (AYPQIRCTW; listed as Homo sapiens) [compound 178]
+++ (>50 = +++) | 236 (LHLYCLNTF; listed as Homo sapiens) [compound 236]
++++ (>75% = ++++) | 83 (VLQGEFFLF; listed as Homo sapiens) [compound 83]
++++ (>75% = ++++) | 226 (TYSTNRTMI; listed as Homo sapiens) [compound 226]
++++ (>75% = ++++) | 369 (NFYLFPTTF; listed as Homo sapiens) [compound 369]
+++ (>50 = +++) | 365 (KDLMKAYLF; listed as Homo sapiens) [compound 365]
++++ (>75% = ++++) | 29 (IYLLLPPVI; listed as Homo sapiens) [compound 29]
++++ (>75% = ++++) | 335 (RYQSVIYPF; listed as Homo sapiens) [compound 335]
++++ (>75% = ++++) | 3 (KFLTHDVLTELF; listed as Homo sapiens) [compound 3]
++++ (>75% = ++++) | 82 (SYLENSASW; listed as Homo sapiens) [compound 82]
++++ (>75% = ++++) | 242 (SYTPLLSYI; listed as Homo sapiens) [compound 242]
+ (>10% = +) | 166 (MMALWSLLHL; listed as Homo sapiens) [compound 166]
+++ (>50 = +++) | 146 (NYFLDPVTI; listed as Homo sapiens) [compound 146]
+++ (>50 = +++) | 31 (KQMQEFFGL; listed as Homo sapiens) [compound 31]
++++ (>75% = ++++) | 246 (KIYTTVLFANI; listed as Homo sapiens) [compound 246]
++ (>20% = ++) | 271 (INGDLVFSF; listed as Homo sapiens) [compound 271]
++++ (>75% = ++++) | 145 (MYTIVTPML; listed as Homo sapiens) [compound 145]
+++ (>50 = +++) | 366 (RLGEFVLLF; listed as Homo sapiens) [compound 366]
+ (>10% = +) | 290 (VTPKMLISF; listed as Homo sapiens) [compound 290]
++ (>20% = ++) | 167 (LQPPWTTVF; listed as Homo sapiens) [compound 167]
++ (>20% = ++) | 229 (CAMPVAMEF; listed as Homo sapiens) [compound 229]
++++ (>75% = ++++) | 368 (AYFVAMHLF; listed as Homo sapiens) [compound 368]

Peptide exchange (MHC class I binding score, peptide exchange yield) | Substance
++ (>20% = ++) | 216 (RHYHSIEVF; listed as Homo sapiens) [compound 216]
++ (>20% = ++) | 196 (VGRSPVFLF; listed as Homo sapiens) [compound 196]
++++ (>75% = ++++) | 311 (IQNAILHLF; listed as Homo sapiens) [compound 311]
+ (>10% = +) | 37 (ISFSDTVNVW; listed as Homo sapiens) [compound 37]
++ (>20% = ++) | 35 (FSSTLVSLF; listed as Homo sapiens) [compound 35]
++++ (>75% = ++++) | 18 (KYVDINTFRL; listed as Homo sapiens) [compound 18]
++++ (>75% = ++++) | 200 (LYMSVEDFI; listed as Homo sapiens) [compound 200]
++++ (>75% = ++++) | 208 (QYLQQQAKL; listed as Homo sapiens) [compound 208]
++ (>20% = ++) | 211 (MLYFAPDLIL; listed as Homo sapiens) [compound 211]
+++ (>50 = +++) | 143 (KTKRWLWDF; listed as Homo sapiens) [compound 143]
++ (>20% = ++) | 348 (RSWENIPVTF; listed as Homo sapiens) [compound 348]
+++ (>50 = +++) | 198 (VLAPVSGQF; listed as Homo sapiens) [compound 198]
+++ (>50 = +++) | 181 (IHGIKFHYF; listed as Homo sapiens) [compound 181]
++ (>20% = ++) | 361 (KQPANFIVL; listed as Homo sapiens) [compound 361]
++ (>20% = ++) | 238 (YTCSRAVSLF; listed as Homo sapiens) [compound 238]
++++ (>75% = ++++) | 308 (AAFISVPLLI; listed as Homo sapiens) [compound 308]
++ (>20% = ++) | 24 (KMLPEASLLI; listed as Homo sapiens) [compound 24]
++++ (>75% = ++++) | 69 (KWFDSHIPRW; listed as Homo sapiens) [compound 69]
+++ (>50 = +++) | 93 (TDWSPPPVEF; listed as Homo sapiens) [compound 93]
+ (>10% = +) | 284 (QFYSTLPNTI; listed as Homo sapiens) [compound 284]
++++ (>75% = ++++) | 153 (AWSPPATLF; listed as Homo sapiens) [compound 153]
++++ (>75% = ++++) | 168 (LSSPVHLDF; listed as Homo sapiens) [compound 168]
++ (>20% = ++) | 130 (RPEKVFVF; listed as Homo sapiens) [compound 130]

Peptide exchange (MHC class I binding score, peptide exchange yield) | Substance
++++ (>75% = ++++) | 41 (IYFATQVVF; listed as Homo sapiens) [compound 41]
+ (>10% = +) | 256 (QHAWLPLTI; listed as Homo sapiens) [compound 256]
++++ (>75% = ++++) | 224 (AYLQFLSVL; listed as Homo sapiens) [compound 224]
++ (>20% = ++) | 269 (FSFSTSMNEF; listed as Homo sapiens) [compound 269]
++++ (>75% = ++++) | 327 (KWKPSPLLF; listed as Homo sapiens) [compound 327]
+++ (>50 = +++) | 210 (EAYSYPPATI; listed as Homo sapiens) [compound 210]
++ (>20% = ++) | 264 (AYAIPSASLSW; listed as Homo sapiens) [compound 264]
++ (>20% = ++) | 174 (TYGEEMPEEI; listed as Homo sapiens) [compound 174]
+++ (>50 = +++) | 258 (VCWNPFNNTF; listed as Homo sapiens) [compound 258]
++ (>20% = ++) | 228 (VYLRIGGF; listed as Homo sapiens) [compound 228]
++ (>20% = ++) | 334 (KVFGSFLTL; listed as Homo sapiens) [compound 334]
++ (>20% = ++) | 387 (THAGVRLYF; listed as Homo sapiens) [compound 387]
+ (>10% = +) | 319 (ATATLHLIF; listed as Homo sapiens) [compound 319]
++ (>20% = ++) | 204 (WQNVTPLTF; listed as Homo sapiens) [compound 204]
++++ (>75% = ++++) | 341 (RYENVSILF; listed as Homo sapiens) [compound 341]
++ (>20% = ++) | 231 (KYSVAFYSLD; listed as Homo sapiens) [compound 231]
++++ (>75% = ++++) | 351 (GYFGTASLF; listed as Homo sapiens) [compound 351]
++++ (>75% = ++++) | 217 (QRYGFSSVGF; listed as Homo sapiens) [compound 217]
++ (>20% = ++) | 186 (RRVTWNVLF; listed as Homo sapiens) [compound 186]
++++ (>75% = ++++) | 73 (YFCSTKGQLF; listed as Homo sapiens) [compound 73]
+ (>10% = +) | 219 (KVVSGFYYI; listed as Homo sapiens) [compound 219]
+++ (>50 = +++) | 13 (KYYIATMAL; listed as Homo sapiens) [compound 13]
++++ (>75% = ++++) | 155 (PYSIYPHGVTF; listed as Homo sapiens) [compound 155]

Source: patent publication US12060400B2, “Peptides for use in immunotherapy against cancers” (Immatics Biotechnologies GmbH, priority 2018, dated 2024)
